Data reported in patent US8088897B2, “Assay method for group transfer reactions” (BellBrook Labs, Inc., priority 2003, dated 2012).
Read-outs that look alike come from different tables or passages of the source.

Experiments:
GDP monoclonal antibody = assay: FP competition binding of GDP vs GTP to monoclonal antibody-tracer complex; set-up: species or system mouse; details: 2 nM far red Tracer, 0.85 μg/mL antibody, one hour
Protocol: Fluorescence intensity and polarization measurements utilizing the ADP-Alexa Fluor® or GDP-Alexa Fluor® tracers were performed on a Tecan Ultra or Safire^2™ plate reader (Durham, N.C.) using appropriate filter sets. For the ADP-Alexa Fluor®633 tracer, the filters for the Safire2 were 635 nm excitiation (LED) and 670 emission (20 nm bandwidth). The free tracer reference was set to 20 mP, and the buffer (with or without antibody) was used as the buffer blank for both the sample and free tracer reference wells. Data from binding and competition curves were fit to a variable slope sigmoidal dose-response curve and the IC50 were calculated using GraphPad Prism (GraphPad Software, San Diego, Calif.).
To identify suitable antibody/tracer pairs for FP assay development, equilibrium binding assays were performed by titrating ADP/GDP antibodies with a panel of ADP/GDP tracers (1-2 nM). The first well consisted of 1 mg/mL antibody in 30 μL of the final equilibrium buffer (i.e. 50 mM HEPES (pH 7.5), 0.01% Brij-35, 1 mM EGTA, 2 mM MgCl2, 0.5% DMSO, 20 mM EDTA, and 2 nM tracer). A two-fold serial dilution of the antibody was then performed in 15 μL of the same buffer. […]
In one example, the monoclonal antibody binding selectivity between GDP vs. GTP was analyzed and the results are set forth in FIG. 27. […]

[1] = test system: Protein G-purified Anti-ADP antibody; assay: FP competition with 5-FAM-N6-ADP tracer and anti-ADP polyclonal antibody; assay type: binding, rabbit; details: 1 nM 5-FAM-N6-ADP tracer; for IC50: 19 hours room temperature, read-out: half maximal point in the competition curve (IC50); for amount required to displace the tracer: compared with ADP and ATP
Source text: To develop an anti-ADP antibody, 6-aminobutyl-ADP (Biolog Life Science Inst., Bremen, Germany) was conjugated to keyhole limpet hemocyanin with a suitable reagent such as glutaraldehyde and used to immunize rabbits. Other carrier proteins such as BSA or ovalbumin and other conjugation chemistries may be used. Attachment to carrier protein via the adenine ring exposes the ribosyl-phosphate moiety, where selectivity is required, and minimizes exposure of the adenine ring. The resulting antisera was tested for ADP binding affinity and selectivity in competitive fluorescence polarization binding assays. Synthesis of the fluor-ADP conjugates used as tracers in these binding assays is described below. […] The reaction mixtures consisted of 50 mM KPO4, 150 mM NaCl, 0.1 mg/mL BGG, 1 nM tracer, 3% Protein G-purified Anti-ADP antibody, and competitor. The reaction mixtures were incubated for 19 hours at room temperature. Competitors included ADP (∘), ATP (●), Adenosine (▪), and AMP (▴).

UGT 2B7 Baculosomes = assay: Mock UGT reactions: signal stabilization and reaction quenching; assay type: biochemical; details: EGTA at 80 mM, sodium vanadate at 30 mM; for effect on UDP breakdown: 5 μM UDP added, no acceptor substrate
Protocol: UGT enzymes are available only as crude membrane preparations that contain many other enzymes besides the desired UGT. Some of these contaminating enzymes can catalyze hydrolysis of the UDP molecule to UMP or Uridine, resulting in an unstable signal for the assay. To prevent this, agents such as sodium vanadate and EGTA are added to stabilize the assay signal by preventing breakdown of the UDP formed during the UGT reaction. […] The use of such a quenching reagent provides greater flexibility in experimental protocols because HTS assay plates may be read at any time after the quench reagent is added.

SULT1E1 [2] = target: T1, SULT1E1 (Homo sapiens, UniProt P49888); assay: SULT1E1 enzymatic properties (Km, acceptor substrate specificity); assay type: biochemical; details: for acceptor substrate specificity: purified SULT1E1
T1 construct: made in house; host or cells: E. coli
T1 sequence (P49888 1-294): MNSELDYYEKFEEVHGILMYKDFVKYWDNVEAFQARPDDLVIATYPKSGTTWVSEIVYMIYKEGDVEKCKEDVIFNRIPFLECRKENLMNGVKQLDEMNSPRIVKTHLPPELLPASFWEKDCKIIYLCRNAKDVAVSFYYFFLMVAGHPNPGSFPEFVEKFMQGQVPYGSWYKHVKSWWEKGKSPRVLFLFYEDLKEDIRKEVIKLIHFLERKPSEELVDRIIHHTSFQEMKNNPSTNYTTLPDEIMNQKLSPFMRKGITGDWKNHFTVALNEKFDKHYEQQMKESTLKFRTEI
Source text: In order to establish a sulfotransferase HTS assay method, SULT1E1, a SULT isoform, was first subcloned into an E. coli expression vector with a C-terminal 6× histidine tag and the expressed protein was purified by affinity chromatography and characterized with respect to its physical and enzymatic properties.

SULT1E1 [3] = target: T1, SULT1E1; assay: 35S-PAPS radioassay of SULT1E1 inhibition; assay type: biochemical; details: 35S-radioassay
SULT1E1 [4] = target: T1, SULT1E1; assay: Inhibition of SULT1E1 measured with the FPIA-based assay; assay type: biochemical
Protocol: Specifically, FIG. 25 is a graph showing inhibition of SULT1E1 by 2,6 Dichloro-4-nitrophenol (DCNP) measured with the FPIA-based assay. DCNP was serially diluted two-fold into wells in 46 uL of phosphate assay buffer (30 mM KPO4 (pH 6.5), 0.5 mg/mL BGG, 15 mM DTT, 1.6 mM MgCl2, 4 μM PAPS), followed by 50 μl of a 2× Antibody/tracer mix (5 uL 3642 Ab/2 nM Tracer C8-PAP-F14), and 200 ng of SULTIE in a total volume of 100 μl. The plate was incubated at room temp for 30 min, and read on the Tecan Ultra. AmP values were calculated by subtracting the SULT1E reactions from the no SULTIE controls. All values represent the mean of replicates.

Ab 1781 = assay: FP competition curves with Ab 1781 and PAP tracer; assay type: binding, rabbit; details: 1 nM C8-PAP-F14 tracer, 3 uL Ab 1781; read-out: IC50 for displacement of tracer
Protocol: (§1) Competitors were serially diluted two-fold in a black 384-well microtiter plate containing 50 mM phosphate buffer (pH 7.4), 150 mM NaCl, 0.1 mg/mL BGG, 1 nM Tracer C8-PAP-F14, and either 1.5 uL Ab 3642 (A) or 3 uL Ab 1781 (B) in a total volume of 12 uL. After one hour incubation at room temperature, the polarization values were read on a Tecan Ultra (Ex485/Em535). The mean and standard deviation of duplicates for all data sets are shown.

Ab 3642 = assay: FP competition curves with Ab 3642 and PAP tracer; assay type: binding, rabbit; details: read-out: IC50 for displacement of tracer
Protocol: N6-PAP-6F8 tracer is represented by the open symbols: ◯ (PAP), □ (PAPS). C8-PAP-F14 tracer is represented with the closed symbols: ● (PAP), ▪ (PAPS). PAP or PAPS was serially diluted two-fold in black mutiwell plates containing 50 mM phosphate buffer (pH 7.4), 150 mM NaCl, 0.1 mg/mL BGG, 1 nM C8-PAP-F14, and 1.5 uL purified Ab 3642 in a total volume of 12 μl or 1 nM N6-PAP-F8 and 0.5 uL 3642 Ab in a 20 uL volume. Polarization values were read after one hour at room temperature.
as §1

[5] = target: polyclonal antibody raised against a mixture of UTP and UDP conjugated to KLH (UGT-1); assay: Competitive FP displacement of UTP tracers from anti-UDP/UTP antibody by uridine nucleotides; assay type: binding, rabbit
Protocol: To detect UGT catalytic activity a series of experiments were performed using the antibodies and tracers described above. […] The antibody and 2 nM of a commercially available Alexa® 488-5-aminoalkynyl-UTP molecule (Molecular Probes) were added to wells of a black multiwell plate (Thermo Labsystems Pt# 7605) containing the indicated amounts of uridine nucleotides in 50 mM KPO4pH 7.5, 150 mM NaCl, 0.1 mg/ml BGG . Fluorescence polarization was read in a Tecan Ultra plate reader after several hours of equilibration at room temperature using a Ex485/Em535 filter set.
Applicants further note that the ability of the antibody to selectively recognize low micromolar concentrations of UDP in the presence of UDPGA concentrations typically used for UGT assays —50-100μM —is important for achieving a low signal to background. Varying the structure of the immunogen, as mentioned above, is one way to change the relative binding properties of antibodies for UDP and UDPGA. Another way that is not as immediately obvious is to vary the tracer structure. The method depends on the relative ability of UDP and UDPGA to competitively displace the tracer from antibody, and it is reasonable to assume that not all tracers will show the same relative response to the two nucleotides. An example of such tracer effects is summarized in FIGS. 10 A and B. In this example, two different tracers are compared. The tracers are conjugates of 5-aminoallyl UTP to two different amine reactive Alexa Fluors®, one with an excitation peak of 546 and the other with an excitation of 568. Both of these tracers are displaced from antibody (anti-UDP rabbit polyclonal Ab or UGT-1) in a similar manner by UDP. […] Thus, the signal to background of the UGT assay with a given antibody can be enhanced by identifying tracers that are displaced by UDP more effectively than UDPGA.

SULT1E1 [6] = target: T1, SULT1E1; details: acceptor substrate; read-out: Km, published values for purified recombinant SULT1E1; cited from earlier work
[7] = 1 nM C8-PAP-F14 tracer, 1.5 uL Ab 3642
[8] = 2 nM Alexa 488-5-aminoalkynyl-UTP tracer, UGT-1 antibody, read-out: half maximal values (IC50) for competing off the tracer
[9] = Alexa 546 5-aminoallyl UTP tracer, UGT-1, read-out: IC50 for displacement of tracer from antibody

Nc1nc2c(ncn2[C@@H]2O[C@H](COP(=O)(O)OP(=O)(O)OP(=O)(O)O)[C@@H](O)[C@H]2O)c(=O)[nH]1 [GTP, guanosine triphosphate]
IC50 (GDP monoclonal antibody): 1.3 µM

Nc1ncnc2c1ncn2[C@@H]1O[C@H](COP(=O)(O)OP(=O)(O)OP(=O)(O)O)[C@@H](O)[C@H]1O [ATP, adenosine triphosphate]
IC50 [1]: 15 µM

O=C(O)CN(CCOCCOCCN(CC(=O)O)CC(=O)O)CC(=O)O [EGTA]
effect on UGT activity (UGT 2B7 Baculosomes): minimal effects
effect on UDP breakdown (UGT 2B7 Baculosomes): very effectively inhibits UDP breakdown

Nc1nc2c(ncn2[C@@H]2O[C@H](COP(=O)(O)OP(=O)(O)O)[C@@H](O)[C@H]2O)c(=O)[nH]1 [GDP, guanosine diphosphate]
IC50 (GDP monoclonal antibody): 0.01 µM

Nc1ncnc2c1ncn2[C@@H]1O[C@H](COP(=O)(O)OP(=O)(O)O)[C@@H](O)[C@H]1O [ADP, adenosine diphosphate]
IC50 [1]: 0.3 µM

C[C@]12CC[C@H](O)CC1=CC[C@@H]1[C@@H]2CC[C@]2(C)C(=O)CC[C@@H]12 [DHEA]
acceptor substrate specificity (SULT1E1 [2]): very poor substrates

O=[N+]([O-])c1cc(Cl)c(O)c(Cl)c1 [DCNP, 2,6 Dichloro-4-nitrophenol]
Ki (SULT1E1 [3]): 11000 µM
Ki (SULT1E1 [4]): 7800 µM

Oc1cccc2ccccc12 [α-naphthol]
acceptor substrate specificity (SULT1E1 [2]): intermediate

Nc1ncnc2c1ncn2[C@@H]1O[C@H](CO)[C@@H](O)[C@H]1O [adenosine, Adenosine]
amount required to displace the tracer [1]: much higher amounts

Nc1ncnc2c1ncn2[C@@H]1O[C@H](COP(=O)(O)O)[C@@H](O)[C@H]1O [AMP]
amount required to displace the tracer [1]: much higher amounts

Nc1ncnc2c1ncn2[C@@H]1O[C@H](COP(=O)(O)OS(=O)(=O)O)[C@@H](OP(=O)(O)O)[C@H]1O [PAPS, 3′-Phosphoadenosine 5′-phosphosulphate]
IC50 (Ab 1781): 1.5 µM
Km (SULT1E1 [2]; donor, read-out: Km for PAPS with SULT1E1): ~0.05 µM
IC50 (Ab 3642; [7]): 3.8 µM

Nc1ncnc2c1ncn2[C@@H]1O[C@H](COP(=O)(O)O)[C@@H](OP(=O)(O)O)[C@H]1O [PAP, 3′-phosphoadenosine 5′-phosphate]
IC50 (Ab 1781): 0.3 µM
IC50 (Ab 3642; [7]): 0.3 µM
IC50 (Ab 3642; C8-PAP-F14 tracer, Ab 3642): 0.3 µM

NCCc1ccc(O)c(O)c1 [dopamine]
acceptor substrate specificity (SULT1E1 [2]): very poor substrates

O=c1ccn([C@@H]2O[C@H](COP(=O)(O)OP(=O)(O)O)[C@@H](O)[C@H]2O)c(=O)[nH]1 [UDP]
IC50 [5, 8]: 15 µM
IC50 [5, 9]: 7 µM
IC50 ([5]; Alexa 568 5-aminoallyl UTP tracer, UGT-1, read-out: IC50 for displacement of tracer from antibody): 9 µM

O=C(O)[C@H]1O[C@H](OP(=O)(O)OP(=O)(O)OC[C@H]2O[C@@H](n3ccc(=O)[nH]c3=O)[C@H](O)[C@@H]2O)[C@H](O)[C@@H](O)[C@@H]1O [UDPGA, UDP-glucuronic acid]
IC50 ([5]; 2 nM Alexa 488-5-aminoalkynyl-UTP tracer, UGT-1 antibody, read-out: IC50 for competing off the tracer): ~2000 µM
IC50 [5, 9]: 1200 µM

C[C@]12CC[C@@H]3c4ccc(O)cc4CC[C@H]3[C@@H]1CC[C@@H]2O [estradiol]
Km (SULT1E1 [6]): 0.005 to 0.015 µM

O=c1ccn([C@@H]2O[C@H](COP(=O)(O)OP(=O)(O)OP(=O)(O)O)[C@@H](O)[C@H]2O)c(=O)[nH]1 [UTP]
IC50 [5, 8]: 5 µM

Sodium vanadate
effect on UGT activity (UGT 2B7 Baculosomes): very effectively inhibits UGT activity
effect on UDP breakdown (UGT 2B7 Baculosomes): prevents UDP breakdown
